Data taken from publication PMC7730452, “Citrullination-Resistant LL-37 Is a Potent Antimicrobial Agent in the Inflammatory Environment High in Arginine Deiminase Activity” (International Journal of Molecular Sciences, 2020).
In brackets after ≈: the same amount, converted by molar mass. Read-outs that look alike come from different tables or passages of the source.

How the values were obtained:
HaCaT cells = assay: LDH release cytotoxicity assay; type: cell-based, human; settings: 24 h, n = 2
Procedure: The cell line of human immortalized keratinocytes (HaCaT) was obtained from American Type Culture Collection (ATCC, Manassas, VA, USA) and cultured in DMEM (Gibco, Life Technologies, Paisley, UK) supplemented with 10% heat-inactivated fetal bovine serum (FBS) and PEST (100 U/mL penicillin and 100 U/mL streptomycin) at 37 °C in humidified 5% CO2 atmosphere. Cells were passaged every 4–5 days. To assess the effect of peptides on the integrity of the plasma membrane, the LDH release assay was performed using the CytoTox96 nonradioactive cytotoxicity assay kit (Promega, Madison, WI, USA) according to the manufacturer’s instructions. Cytotoxicity was calculated with the formula: % cytotoxicity = 100 × (experimental LDH release/maximum LDH release), where maximum LDH release occurs after the addition of lysis solution (Triton X-100). Relative amounts of LDH release were measured (absorbance at 490 nm) using FlexStation 3 Multimode Microplate Reader (Molecular Device, Wokingham, UK). All assays were performed in duplicate.

cathepsin G = cathepsin G (Homo sapiens, UniProt P08311)
cathepsin G, sequence (P08311 21-255): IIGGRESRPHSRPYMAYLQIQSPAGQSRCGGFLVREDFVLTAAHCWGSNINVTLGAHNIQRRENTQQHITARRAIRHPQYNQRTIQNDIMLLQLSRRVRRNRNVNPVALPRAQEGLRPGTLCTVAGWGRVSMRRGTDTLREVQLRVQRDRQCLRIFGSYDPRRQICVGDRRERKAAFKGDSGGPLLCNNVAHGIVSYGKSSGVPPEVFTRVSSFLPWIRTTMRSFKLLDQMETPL
Procedure: (§1) After incubation samples were immediately frozen at −80 °C. Samples were separated on SDS-PAGE under denaturing condition in 4–16% gels. After separation, the gels underwent colloid Coomassie staining.

V8 protease = V8 protease (Staphylococcus aureus, UniProt P0C1U8); assay: Degradation by protease, SDS-PAGE; settings: 5 μg peptide, 0.05 μg protease, PBS, 25 μL, 37 °C, 1 h and 18 h, Coomassie
V8 protease, sequence (P0C1U8 69-336): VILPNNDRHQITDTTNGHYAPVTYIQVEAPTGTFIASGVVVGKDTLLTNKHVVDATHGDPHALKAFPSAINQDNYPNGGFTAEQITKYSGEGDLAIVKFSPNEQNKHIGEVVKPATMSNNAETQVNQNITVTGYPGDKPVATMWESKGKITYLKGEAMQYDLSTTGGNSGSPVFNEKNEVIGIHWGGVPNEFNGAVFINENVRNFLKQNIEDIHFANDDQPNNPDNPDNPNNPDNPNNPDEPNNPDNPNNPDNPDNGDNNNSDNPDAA
Procedure: as §1

aureolysin = aureolysin (Staphylococcus aureus, UniProt P81177); assay: Degradation by protease, SDS-PAGE; settings: 5 μg peptide, 0.05 μg protease, PBS, 25 μL, 37 °C, 1 h and 18 h, Coomassie
aureolysin, sequence (P81177 209-509): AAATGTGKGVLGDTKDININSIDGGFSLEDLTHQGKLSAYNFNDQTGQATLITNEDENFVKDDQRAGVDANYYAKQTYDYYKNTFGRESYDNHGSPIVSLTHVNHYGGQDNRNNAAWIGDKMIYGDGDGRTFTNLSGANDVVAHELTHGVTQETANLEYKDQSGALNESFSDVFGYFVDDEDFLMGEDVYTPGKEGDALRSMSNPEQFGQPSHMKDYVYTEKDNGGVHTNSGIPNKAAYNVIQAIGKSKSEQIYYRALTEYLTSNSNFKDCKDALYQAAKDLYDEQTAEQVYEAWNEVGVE
Procedure: as §1

[1] = cited from earlier work
Text: The slower hydrolysis rate of homoarginine-containing peptides compared with their arginine-containing counterparts depend ...

venous leg ulcers = settings: patients with venous leg ulcers; cited from earlier work
Text: Current research is partly focused on peptide-based compounds.

E. coli = type: cell-based, Escherichia coli ATCC 25922
Procedure: (§2) Escherichia coli ATCC 25922 and Pseudomonas aeruginosa (clinical isolate) were inoculated from stocks into 20 mL LB Broth Lennox, while Staphylococcus aureus Δaur (8325-4 Δaur) into 20 mL TSB and grown overnight at 37 °C under constant rotation (180 rpm) to a mid-logarithmic growth phase. Then they were centrifuged at 5000× g for 5 min, washed in PBS, and resuspended in PBS to the desired OD (600 nm).
(§3) Mueller-Hinton broth (MHB, Sigma-Aldrich) was used as the working medium for all bacterial strains. Briefly, inoculum was prepared from freshly grown cultures of bacteria being at their exponential phase of growth. Each well of 96-well plates containing 100 μL of serially diluted peptides in PBS at desired concentration was inoculated with 100 μL of 1 × 10^5 (CFU) mL^−1 of bacterial suspensions. Then, plates were incubated overnight at 37 °C and absorbance was read at 590 nm in a Flex Station 3 multi-mode microplate reader (Molecular Devices). An absorbance reading in wells without a peptide representing unrestrained bacterial growth was taken as positive control (100% bacterial survival). Readings in wells without bacteria were taken as negative controls. All measurements were run in triplicates.

P. aeruginosa = type: cell-based, Pseudomonas aeruginosa (clinical isolate)
Procedure: as §2, §3

neutrophil elastase = neutrophil elastase (Homo sapiens, UniProt P08246); settings: 5 μg peptide, 0.05 μg protease, PBS, 25 μL, 37 °C, 1 h and 18 h; SDS-PAGE, Coomassie
neutrophil elastase, sequence (P08246 30-267): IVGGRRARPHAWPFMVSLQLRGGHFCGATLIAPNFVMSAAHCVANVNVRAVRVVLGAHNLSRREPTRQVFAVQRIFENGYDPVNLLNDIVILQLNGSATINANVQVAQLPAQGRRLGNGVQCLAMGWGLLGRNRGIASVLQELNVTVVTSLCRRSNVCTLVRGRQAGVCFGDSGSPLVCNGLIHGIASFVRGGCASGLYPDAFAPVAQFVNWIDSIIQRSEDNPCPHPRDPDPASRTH
Procedure: as §1

recombinant human PAD4 = recombinant human PAD4 (Homo sapiens, UniProt Q9UM07)
recombinant human PAD4, sequence (Q9UM07 whole entry): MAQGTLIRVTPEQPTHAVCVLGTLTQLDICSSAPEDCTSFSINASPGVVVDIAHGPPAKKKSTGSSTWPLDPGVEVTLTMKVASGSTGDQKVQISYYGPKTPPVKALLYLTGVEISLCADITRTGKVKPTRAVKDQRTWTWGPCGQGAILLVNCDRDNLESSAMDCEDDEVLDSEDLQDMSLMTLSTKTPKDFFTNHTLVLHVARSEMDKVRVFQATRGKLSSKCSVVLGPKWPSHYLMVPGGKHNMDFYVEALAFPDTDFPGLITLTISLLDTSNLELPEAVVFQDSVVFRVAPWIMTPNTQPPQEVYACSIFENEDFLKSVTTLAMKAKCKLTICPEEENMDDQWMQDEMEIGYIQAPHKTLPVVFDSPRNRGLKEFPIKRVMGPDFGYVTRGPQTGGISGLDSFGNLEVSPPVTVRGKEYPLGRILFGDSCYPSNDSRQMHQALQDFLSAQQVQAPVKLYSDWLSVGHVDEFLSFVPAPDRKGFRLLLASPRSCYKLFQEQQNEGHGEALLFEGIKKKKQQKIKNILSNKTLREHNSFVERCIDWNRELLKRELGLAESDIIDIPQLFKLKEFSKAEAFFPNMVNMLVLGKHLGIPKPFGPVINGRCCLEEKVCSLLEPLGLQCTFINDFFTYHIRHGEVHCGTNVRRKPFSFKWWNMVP
Procedure: PAD4 activity was determined on N-α-benzoyl-L-arginine ethyl ester hydrochloride (BAEE) substrate with colorimetric assay [33].
Citrullination was terminated by snap-freezing the samples.
Reaction was terminated by addition of TFA (final concentration 0.1%) (Sigma) and samples were analyzed via HPLC. Separation was achieved on a reverse-phase column Aeris XB-C18, 3.6 μm, 4.6/150 (Phenomenex) connected to ÄKTAmicro (GE Healthcare). Peptides were eluted in the gradient of Phase A (0.1% TFA in water) and Phase B (80% acetonitrile, 0.08% TFA in water) and monitored at 215 nm.

Compound | Toxicity, LDH release (HaCaT cells; peptide 10 μg/mL) | Toxicity, LDH release (HaCaT cells; peptide 25 μg/mL) | Toxicity, LDH release (HaCaT cells; peptide 75 μg/mL) | Degradation by cathepsin G (cathepsin G; 5 μg peptide, 0.5 μg protease, PBS, 25 μL, 37 °C, 1 h and 18 h, SDS-PAGE, Coomassie) | Degradation by V8 protease (V8 protease) | Degradation by aureolysin (aureolysin) | Degradation in NETs [1] | Safety and tolerability (venous leg ulcers) | MIC (minimal inhibitory concentration) (E. coli) [µg/mL] | MIC (minimal inhibitory concentration) (P. aeruginosa) [µg/mL] | Degradation by cathepsin G (cathepsin G) | Degradation by neutrophil elastase (neutrophil elastase) | Modification (citrullination) by PAD4 (recombinant human PAD4)
CC[C@H](C)[C@H](NC(=O)[C@H](CCCCN)NC(=O)[C@H](CCC(=O)O)NC(=O)[C@H](CCCCN)NC(=O)[C@H](CO)NC(=O)[C@H](CCCCN)NC(=O)[C@H](CCCNC(=N)N)NC(=O)[C@H](Cc1ccccc1)NC(=O)[C@H](Cc1ccccc1)NC(=O)[C@H](CC(=O)O)NC(=O)CNC(=O)[C@H](CC(C)C)NC(=O)[C@@H](N)CC(C)C)C(=O)NCC(=O)N[C@@H](CCCCN)C(=O)N[C@@H](CCC(=O)O)C(=O)N[C@@H](Cc1ccccc1)C(=O)N[C@@H](CCCCN)C(=O)N[C@@H](CCCNC(=N)N)C(=O)N[C@H](C(=O)N[C@H](C(=O)N[C@@H](CCC(N)=O)C(=O)N[C@@H](CCCNC(=N)N)C(=O)N[C@H](C(=O)N[C@@H](CCCCN)C(=O)N[C@@H](CC(=O)O)C(=O)N[C@@H](Cc1ccccc1)C(=O)N[C@@H](CC(C)C)C(=O)N[C@@H](CCCNC(=N)N)C(=O)N[C@@H](CC(N)=O)C(=O)N[C@@H](CC(C)C)C(=O)N[C@H](C(=O)N1CCC[C@H]1C(=O)N[C@@H](CCCNC(=N)N)C(=O)N[C@H](C(=O)N[C@@H](CCC(=O)O)C(=O)N[C@@H](CO)C(=O)O)[C@@H](C)O)C(C)C)[C@@H](C)CC)C(C)C)[C@@H](C)CC [LL-37] | did not compromise the membrane permeability | did not compromise the membrane permeability | low, but still significant, release of LDH | did not differ | similarly sensitive | similarly sensitive | gradually degraded | no safety or tolerability concerns were noted |  |  |  |  | 
CC[C@H](C)[C@H](NC(=O)[C@H](CCCCN)NC(=O)[C@H](CCC(=O)O)NC(=O)[C@H](CCCCN)NC(=O)[C@H](CO)NC(=O)[C@H](CCCCN)NC(=O)[C@H](CCCCNC(=N)N)NC(=O)[C@H](Cc1ccccc1)NC(=O)[C@H](Cc1ccccc1)NC(=O)[C@H](CC(=O)O)NC(=O)CNC(=O)[C@H](CC(C)C)NC(=O)[C@@H](N)CC(C)C)C(=O)NCC(=O)N[C@@H](CCCCN)C(=O)N[C@@H](CCC(=O)O)C(=O)N[C@@H](Cc1ccccc1)C(=O)N[C@@H](CCCCN)C(=O)N[C@@H](CCCCNC(=N)N)C(=O)N[C@H](C(=O)N[C@H](C(=O)N[C@@H](CCC(N)=O)C(=O)N[C@@H](CCCCNC(=N)N)C(=O)N[C@H](C(=O)N[C@@H](CCCCN)C(=O)N[C@@H](CC(=O)O)C(=O)N[C@@H](Cc1ccccc1)C(=O)N[C@@H](CC(C)C)C(=O)N[C@@H](CCCCNC(=N)N)C(=O)N[C@@H](CC(N)=O)C(=O)N[C@@H](CC(C)C)C(=O)N[C@H](C(=O)N1CCC[C@H]1C(=O)N[C@@H](CCCCNC(=N)N)C(=O)N[C@H](C(=O)N[C@@H](CCC(=O)O)C(=O)N[C@@H](CO)C(=O)O)[C@@H](C)O)C(C)C)[C@@H](C)CC)C(C)C)[C@@H](C)CC [hArg-LL-37] |  |  |  |  | similarly sensitive | similarly sensitive |  |  | 50 (≈ 11 µM) | 50 (≈ 11 µM) | did not differ | degraded more rapidly by neutrophil elastase than LL-37 | did not evidently modify
